US20220296866A1, “METHODS, DEVICES AND COMPOSITIONS FOR LOCAL DELIVERY” (POLY-MED, INC., priority 2019, published 2022)

What was measured:
[1] = In vitro drug release evaluation of Mitomycin C-eluting devices in artificial urine; format: physicochemical
Method: Devices prepared from earlier examples were characterized for drug release profile in artificial urine to predict in vivo behavior in a human bladder. First, artificial urine was prepared according to ASTM F1828, with a modified buffer. Drug-containing samples were placed in individual 20 mL glass vials and 15 mL artificial urine added to cover the sample. This volume of artificial urine was sufficiently above the Mitomycin C solubility limit for each sample so as not to interfere with release analysis. Filled glass vials were placed in a 37° C. incubator on a 1 Hz orbital bed. As predetermined time points, a total changeover of artificial urine was performed, with the exchanged urine analyzed by HPLC to determine total release of Mitomycin C per time period.
HPLC analysis was performed using a Waters ACQUITY ArcHPLC with C18 column using an isocratic method with 71:29 water:methanol mobile phase. Peaks were compared against a standard curve to determine concentration in the sample, and calculated to total percentage release based on fluid volume and loading of Mitomycin C in the sample. […] A secondary release of drug is anticipated as the OC9 and SVG12 materials experience degradation.

[2] = Stability of Mitomycin C in PDLG film (colour change); format: physicochemical; conditions: evidenced by a change in color from purple to tan
Method: SVG12 (Poly-Med, Inc.) and PDLG (Purasorb PDLG 7507, Corbion) were separately dissolved in chloroform, each at 15% concentration (wt/vol %). Solutions were divided to create different drug-loading solutions according to the associated table. In short, lidocaine (Sigma Aldrich) was added to a solution of SVG12 at a concentration of 134 mg drug per 1 gram of SVG12. Dexamethasone was added to a separate solution of PDLG at a concentration of 29 mg drug per 1 gram of PDLG. Mitomycin C was added to a separate solution of PDLG at a concentration of 6.8 mg drug per 1 gram of PDLG. All solutions were held at room temperature on a roller until completely dissolved. The solutions were cast into thin films using a 25-mil film casting blade and allowed to dry.
Drug-loaded films were cut into rectangles and placed on SVG12-only films. In the case of the dexamethasone- and lidocaine-loaded sample, the cut films were stacked one on top of the other. In the case of mytomycin C-loaded films, 4 drug-loaded films were stacked one on top of the other to increase total delivery payload. On top of the drug-eluting film, a separate SVG12-only film was added which was larger in size. Degradable medical devices and/or compositions were clamped between rubber films between glass plates, clamped to apply pressure, and heated at 50° C. for 3 hours to create a seal between the encapsulation films. […]

In the case of `CO[C@@]12[C@H](COC(N)=O)C3=C(C(=O)C(C)=C(N)C3=O)N1C[C@@H]1N[C@@H]12` [Mitomycin C], the “Mitomycin C release compared with the free gel” value ([1]; OC9/PEG 400 gel placed in the core of the stent, 37° C.) is reported as “Further attenuation”, the “Mitomycin C release profile after the initial release” value ([1]; gel containing 2 parts OC9 and 1 part PEG 400, 37° C., after about 3 days) is reported as “extended release plateau” and the “total percentage release of Mitomycin C” value ([1]; gel containing 2 parts OC9 and 1 part PEG 400, 37° C., over about 3 days) is reported as 13%. For the same molecule, the “stability of Mitomycin C in polymer” value [2] was “poor stability”.
